Results from patent publication US20260028365A1 (BIOGEN MA INC., priority 2022, published 2026).
Counter-ions that a name gives are not always drawn. Like-named read-outs stand apart in the source and are kept apart here.

Assays:
[1] = target: JH2 domain of human Tyk2 (Homo sapiens (Human), UniProt P29597); assay: JH2 Biochemical Assay (TR-FRET probe displacement); format: binding
[2] = target: Tyk2 (Homo sapiens (Human), UniProt P29597); assay: pSTAT4 Cell Assay (MSD, NK92 cells); format: cell-based
[3] = TR-FRET probe displacement, JH2 domain of human Tyk2
[4] = JH2 domain of human Tyk2, TR-FRET probe displacement
[5] = TR-FRET probe displacement, JH2 domain

Sequence of JH2 domain of human Tyk2 (P29597 575-876): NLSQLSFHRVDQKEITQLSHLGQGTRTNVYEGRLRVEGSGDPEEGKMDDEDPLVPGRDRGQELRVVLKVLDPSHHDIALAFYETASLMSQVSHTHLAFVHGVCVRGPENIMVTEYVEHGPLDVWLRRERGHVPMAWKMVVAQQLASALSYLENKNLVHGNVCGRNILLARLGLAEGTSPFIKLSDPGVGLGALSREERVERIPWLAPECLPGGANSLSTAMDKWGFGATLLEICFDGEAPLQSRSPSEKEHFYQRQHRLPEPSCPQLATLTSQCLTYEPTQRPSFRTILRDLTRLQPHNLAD
Sequence of Tyk2 (P29597 whole entry, the tested form may be a part): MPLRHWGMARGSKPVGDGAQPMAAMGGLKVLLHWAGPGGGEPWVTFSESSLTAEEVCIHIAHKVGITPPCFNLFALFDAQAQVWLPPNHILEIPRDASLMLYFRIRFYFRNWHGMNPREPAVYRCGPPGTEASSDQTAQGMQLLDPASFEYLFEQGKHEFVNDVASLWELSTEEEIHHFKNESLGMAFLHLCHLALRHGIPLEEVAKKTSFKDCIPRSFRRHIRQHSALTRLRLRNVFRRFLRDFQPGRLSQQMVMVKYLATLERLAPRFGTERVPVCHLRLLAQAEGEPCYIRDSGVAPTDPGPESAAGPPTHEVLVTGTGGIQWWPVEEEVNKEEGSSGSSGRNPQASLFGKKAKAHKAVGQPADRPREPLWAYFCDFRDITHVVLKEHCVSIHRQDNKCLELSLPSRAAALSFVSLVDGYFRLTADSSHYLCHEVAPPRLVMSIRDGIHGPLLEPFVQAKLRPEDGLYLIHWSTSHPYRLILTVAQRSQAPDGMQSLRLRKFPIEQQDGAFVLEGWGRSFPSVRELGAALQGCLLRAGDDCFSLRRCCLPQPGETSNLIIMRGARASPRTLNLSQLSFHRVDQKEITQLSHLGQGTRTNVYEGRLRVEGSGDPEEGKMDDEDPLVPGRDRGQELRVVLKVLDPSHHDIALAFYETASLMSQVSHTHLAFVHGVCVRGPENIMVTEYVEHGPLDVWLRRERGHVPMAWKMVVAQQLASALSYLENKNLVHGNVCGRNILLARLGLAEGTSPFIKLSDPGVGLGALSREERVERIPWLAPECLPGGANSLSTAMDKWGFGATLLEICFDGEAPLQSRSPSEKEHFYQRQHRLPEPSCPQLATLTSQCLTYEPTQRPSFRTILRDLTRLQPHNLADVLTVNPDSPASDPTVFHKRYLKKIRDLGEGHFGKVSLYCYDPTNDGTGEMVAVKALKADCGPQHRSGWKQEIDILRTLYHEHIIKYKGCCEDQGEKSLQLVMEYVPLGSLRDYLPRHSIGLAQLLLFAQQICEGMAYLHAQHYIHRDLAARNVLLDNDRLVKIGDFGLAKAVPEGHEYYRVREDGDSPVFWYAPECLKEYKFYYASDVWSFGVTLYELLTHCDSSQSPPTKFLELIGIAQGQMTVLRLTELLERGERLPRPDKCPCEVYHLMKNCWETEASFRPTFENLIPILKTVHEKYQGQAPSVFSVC

Compound	IC50 [1, 3] [nM]	IC50 ([2]; MSD) [nM]	IC50 [1, 4] [nM]	IC50 [1, 5] [nM]	IC50 [2] [nM]
CC(=O)Nc1cc(Nc2cc(C)nc(C(C)(F)F)n2)c(OCc2ccc(F)cn2)cn1 [Example 125, N-(4-((2-(1,1-difluoroethyl)-6-methylpyrimidin-4-yl)amino)-5-((5-fluoropyridin-2-yl)methoxy)pyridin-2-yl)acetamide]	≤ 10	10 to 100	–	–	–
CC(=O)Nc1cc(Nc2cc(C)nc(C(C)(F)F)n2)c(OC2COC2)cn1 [Example 86, N-(4-((2-(1,1-difluoroethyl)-6-methylpyrimidin-4-yl)amino)-5-(oxetan-3-yloxy)pyridin-2-yl)acetamide]	≤ 10	10 to 100	–	–	–
CC(=O)Nc1cc(Nc2cc(C)nc(C(C)(F)F)n2)c(-c2cc(C(C)N(C)C)ccn2)cn1 (stereo not drawn) [Example 743, N-(4′-((2-(1,1-difluoroethyl)-6-methylpyrimidin-4-yl)amino)-4-(1-(dimethylamino)ethyl)-[2,3′-bipyridin]-6′-yl)acetamide]	–	10 to 100	≤ 10	–	–
COc1cnc(NC(C)=O)cc1Nc1cc(OC2CC(C#N)C2)nc(C(C)(F)F)n1 (stereo not drawn) [Example 456, N-(4-((6-(3-cyanocyclobutoxy)-2-(1,1-difluoroethyl)pyrimidin-4-yl)amino)-5-methoxypyridin-2-yl)acetamide]	–	10 to 100	≤ 10	–	–
COc1cnc(NC(C)=O)cc1Nc1nc(C)cc(C(F)(F)F)n1 [Example 436, N-(5-methoxy-4-((4-methyl-6-(trifluoromethyl)pyrimidin-2-yl)amino)pyridin-2-yl)acetamide]	–	≥ 1000	100 to 1000	–	–
CC(=O)Nc1cc(Nc2ccnc(C(C)(C)F)n2)c(-c2cc(C)ncn2)cn1 [Example 198, N-(4-((2-(2-fluoropropan-2-yl)pyrimidin-4-yl)amino)-5-(6-methylpyrimidin-4-yl)pyridin-2-yl)acetamide]	≤ 10	10 to 100	–	–	–
COc1nccc(-c2cnc(NC(C)=O)cc2Nc2cc(C)nc(C(C)(C)F)n2)n1 [Example 181, N-(4-((2-(2-fluoropropan-2-yl)-6-methylpyrimidin-4-yl)amino)-5-(2-methoxypyrimidin-4-yl)pyridin-2-yl)acetamide]	≤ 10	≤ 10	–	–	–
CCc1cc(COc2cnc(NC(C)=O)cc2Nc2cc(C)nc(C(C)(F)F)n2)on1 [Example 319, N-(4-((2-(1,1-difluoroethyl)-6-methylpyrimidin-4-yl)amino)-5-((3-ethylisoxazol-5-yl)methoxy)pyridin-2-yl)acetamide]	≤ 10	10 to 100	–	–	–
CC(=O)Nc1cc(Nc2nccc(C(C)(F)F)n2)c(-c2ccn(C)n2)cn1 [Example 203, N-(4-((4-(1,1-difluoroethyl)pyrimidin-2-yl)amino)-5-(1-methyl-1H-pyrazol-3-yl)pyridin-2-yl)acetamide]	≤ 10	≤ 10	–	–	–
CC(=O)Nc1cc(Nc2ccnc(C(C)(F)F)n2)c(-c2csc(N3CC4(COC4)C3)n2)cn1 [Example 789, N-(5-(2-(2-oxa-6-azaspiro[3.3]heptan-6-yl)thiazol-4-yl)-4-((2-(1,1-difluoroethyl)pyrimidin-4-yl)amino)pyridin-2-yl)acetamide]	–	–	–	≤ 10	≤ 10
CCc1cc(Nc2cc(NC(C)=O)ncc2-c2ccnc(COC)n2)nc(C(C)(F)F)n1 [Example 720, N-(4-((2-(1,1-difluoroethyl)-6-ethylpyrimidin-4-yl)amino)-5-(2-(methoxymethyl)pyrimidin-4-yl)pyridin-2-yl)acetamide]	–	≤ 10	≤ 10	–	–
CC(=O)Nc1cc(Nc2cc(C)nc([C@]34CO[C@](CF)(C3)C4)n2)c(-c2ccn(C)n2)cn1 [Example 560, N-(4-((2-((1s,4s)-1-(fluoromethyl)-2-oxabicyclo[2.1.1]hexan-4-yl)-6-methylpyrimidin-4-yl)amino)-5-(1-methyl-1H-pyrazol-3-yl)pyridin-2-yl)acetamide]	–	≥ 1000	10 to 100	–	–
CC(=O)Nc1cc(Nc2cc(C)nc(C34CC(CO3)C4)n2)c(-c2ccn(C)n2)cn1 [Example 562, N-(4-((2-(2-oxabicyclo[2.1.1]hexan-1-yl)-6-methylpyrimidin-4-yl)amino)-5-(1-methyl-1H-pyrazol-3-yl)pyridin-2-yl)acetamide]	–	10 to 100	≤ 10	–	–
CCc1cc(Nc2cc(NC(C)=O)ncc2-c2cnn(CCOC)n2)nc(C(C)(F)F)n1 [Example 261, N-(4-((2-(1,1-difluoroethyl)-6-ethylpyrimidin-4-yl)amino)-5-(2-(2-methoxyethyl)-2H-1,2,3-triazol-4-yl)pyridin-2-yl)acetamide]	≤ 10	≤ 10	–	–	–
CC(=O)Nc1cc(Nc2cc(C)nc(C(C)(F)F)n2)c(-c2csc(CN(C)C)n2)cn1 [Example 786, N-(4-((2-(1,1-difluoroethyl)-6-methylpyrimidin-4-yl)amino)-5-(2-((dimethylamino)methyl)thiazol-4-yl)pyridin-2-yl)acetamide]	–	–	–	≤ 10	≤ 10
COC1(COc2cnc(NC(C)=O)cc2Nc2cc(C)nc(C(C)(F)F)n2)CCOCC1 [Example 337, N-(4-((2-(1,1-difluoroethyl)-6-methylpyrimidin-4-yl)amino)-5-((4-methoxytetrahydro-2H-pyran-4-yl)methoxy)pyridin-2-yl)acetamide]	≤ 10	10 to 100	–	–	–
CC(=O)Nc1cc(Nc2cc(C)nc(C(C)(F)F)n2)c(OCCN(C)C)cn1 [Example 25, N-(4-((2-(1,1-difluoroethyl)-6-methylpyrimidin-4-yl)amino)-5-(2-(dimethylamino)ethoxy)pyridin-2-yl)acetamide]	≤ 10	10 to 100	–	–	–
CC(=O)Nc1cc(Nc2cc(C)nc(C(C)(F)F)n2)c(OCc2cccnc2C)cn1 [Example 469, N-(4-((2-(1,1-difluoroethyl)-6-methylpyrimidin-4-yl)amino)-5-((2-methylpyridin-3-yl)methoxy)pyridin-2-yl)acetamide]	–	100 to 1000	≤ 10	–	–
CC(=O)Nc1cc(Nc2cc(OC3CC3)nc(C(C)(F)F)n2)c(OCc2ccccc2)cn1 [Example 487, N-(5-(benzyloxy)-4-((6-cyclopropoxy-2-(1,1-difluoroethyl)pyrimidin-4-yl)amino)pyridin-2-yl)acetamide]	–	≤ 10	≤ 10	–	–
CC(=O)Nc1cc(Nc2ccnc(C(C)(C)F)c2)c(-c2ncc(F)cn2)cn1 [Example 216, N-(4-((2-(2-fluoropropan-2-yl)pyridin-4-yl)amino)-5-(5-fluoropyrimidin-2-yl)pyridin-2-yl)acetamide]	10 to 100	100 to 1000	–	–	–
CC(=O)Nc1cc(Nc2ccnc(C(C)(F)F)n2)c(-c2cnn(CCN3CCOCC3)n2)cn1 [Example 778, N-(4-((2-(1,1-difluoroethyl)pyrimidin-4-yl)amino)-5-(2-(2-morpholinoethyl)-2H-1,2,3-triazol-4-yl)pyridin-2-yl)acetamide]	–	–	–	≤ 10	10 to 100
CC(=O)Nc1cc(Nc2cc(OC3CC3)nc(C(C)(F)F)n2)c(Oc2cnn(C)c2)cn1 [Example 301, N-(4-((6-cyclopropoxy-2-(1,1-difluoroethyl)pyrimidin-4-yl)amino)-5-((1-methyl-1H-pyrazol-4-yl)oxy)pyridin-2-yl)acetamide]	10 to 100	100 to 1000	–	–	–
CC(=O)Nc1cc(Nc2cc(C)nc(C(C)(F)F)n2)c(-c2cc3n(n2)CCCN3C)cn1 [Example 240, N-(4-((2-(1,1-difluoroethyl)-6-methylpyrimidin-4-yl)amino)-5-(4-methyl-4,5,6,7-tetrahydropyrazolo[1,5-a]pyrimidin-2-yl)pyridin-2-yl)acetamide]	≤ 10	≤ 10	–	–	–
CNC(=O)Nc1cc(Nc2ccnc(C(C)(F)F)n2)c(-c2cc3n(n2)CCN(C)C3)cn1 [Example 794, 1-(4-((2-(1,1-difluoroethyl)pyrimidin-4-yl)amino)-5-(5-methyl-4,5,6,7-tetrahydropyrazolo[1,5-a]pyrazin-2-yl)pyridin-2-yl)-3-methylurea]	–	–	–	≤ 10	≤ 10
CC(=O)Nc1cc(Nc2ccnc(C(C)(F)F)n2)c(-c2cc3n(n2)CCOC3)cn1 [Example 529, N-(4-((2-(1,1-difluoroethyl)pyrimidin-4-yl)amino)-5-(6,7-dihydrO4H-pyrazolo[5,1-c][1,4]oxazin-2-yl)pyridin-2-yl)acetamide]	–	≤ 10	≤ 10	–	–
COCC1(COc2cnc(NC(C)=O)cc2Nc2cc(C)nc(C(C)(F)F)n2)CC1 [Example 326, N-(4-((2-(1,1-difluoroethyl)-6-methylpyrimidin-4-yl)amino)-5-((1-(methoxymethyl)cyclopropyl)methoxy)pyridin-2-yl)acetamide]	≤ 10	10 to 100	–	–	–
CC(=O)Nc1cc(Nc2ccnc(C(C)(F)F)n2)c(-c2cnc(N(C)C)cn2)cn1 [Example 842, N-(4-((2-(1,1-difluoroethyl)pyrimidin-4-yl)amino)-5-(5-(dimethylamino)pyrazin-2-yl)pyridin-2-yl)acetamide]	–	–	–	≤ 10	10 to 100
COC1(C)CN(Cc2ccc(-c3cnc(NC(C)=O)cc3Nc3ccnc(C(C)(F)F)n3)nc2)C1 [Example 882, N-(4′-((2-(1,1-difluoroethyl)pyrimidin-4-yl)amino)-5-((3-methoxy-3-methylazetidin-1-yl)methyl)-[2,3′-bipyridin]-6′-yl)acetamide]	–	–	–	≤ 10	≤ 10
CCOc1cnc(NC(C)=O)cc1Nc1cc(F)nc(C(C)(F)F)n1 [Example 94, N-(4-((2-(1,1-difluoroethyl)-6-fluoropyrimidin-4-yl)amino)-5-ethoxypyridin-2-yl)acetamide trifluoroacetate]	≤ 10	10 to 100	–	–	–
CC(=O)Nc1cc(Nc2cc(C)nc(C(C)(F)F)n2)c(OC[C@H](C)OC(C)(C)C)cn1 [Example 318, (S)-N-(5-(2-(tert-butoxy)propoxy)-4-((2-(1,1-difluoroethyl)-6-methylpyrimidin-4-yl)amino)pyridin-2-yl)acetamide]	≤ 10	100 to 1000	–	–	–
